This is an account of results in PMC7311950, “Potent Tetrahydroquinolone Eliminates Apicomplexan Parasites” (Frontiers in Cellular and Infection Microbiology, 2020).

Read-outs that look alike come from different tables or passages of the source.

For data set [1], the system named is Human Foreskin Fibroblast (HFF). Nature of the data set: Cytotoxicity assay, WST-1 cell proliferation reagent on HFF. It counts as cell-based. As for the experimental part: Toxicity assays used WST-1 cell proliferation reagent (Roche) as in Fomovska et al. ([2012a]). HFF were grown on a flat, clear-bottomed, black 96-well plate. Confluent HFF were treated with inhibitory compounds at concentrations of 10 and 50 μM. Compounds were diluted in IMDM-C, and 20 μL were added to each designated well, with triplicates for each condition. A gradient with 2-folddecreasing concentrations of DMSO from 10 to 0% in colorless, translucent IMDM-C was used as a control. The plate was incubated for 72 h at 37°C. Ten microlitre WST-1 reagent (Roche) were added to each well. Cells were incubated for 30–60 min. Absorbance was read using a fluorimeter at 420 nm. A higher degree of color change (and absorbance) indicated mitochondrial activity and cell viability.
In general terms: Tetrazolium assays rely on reduction of a dye to a coloured formazan, in cell work by metabolically active cells.

Data set [2] concerns T. gondii mitochondrial membrane potential. In words: T. gondii mitochondrial membrane potential, safranine method. It counts as cell-based, Toxoplasma gondii. The conditions noted are these: doses as high as 4 μM. As to the method:
The mitochondrial membrane potential was measured by the safranine method according to Vercesi et al. ([1998]). Freshly egressed T. gondii tachyzoites were filtered and washed twice with intracellular buffer (125 mM sucrose, 65 mM KCl, 10 mM HEPES-KOH buffer, pH 7.2, 1 mM MgCl2, and 2.5 mM potassium phosphate). After washing, the parasites were resuspended in the same buffer at 10^9/mL. An aliquot of 50 μL of this suspension was added to a cuvette containing Safranin O, 2.5 μM and Succinate 1 mM in final volume of 2 mL of the intracellular buffer. The fluorescence was measured with a Hitachi 7000 spectrofluorometer with settings Ex. 495/Em. 586. Once the baseline fluorescence was stable, 30 μM digitonin was added to permeabilize the parasites. Eighty five seconds after permeabilization, the THQ derivatives, dissolved in DMSO, were added. Five micromolars of FCCP (Carbonyl cyanide-4-(trifluoromethoxy) phenylhydrazone) was used as an uncoupler reference for calculations and its effect was considered 100%. We used similar conditions for measuring the mitochondrial membrane potential of mammalian cells with the following changes: the mammalian cells were resuspended at 10^8/mL. We also used 50 μL of this suspension for each experiment in a total volume of 2 mL. The substrate used for mammalian cells was 5 mM glutamate and 5 mM malate. A higher concentration of digitonin (50 μM) was used to permeabilize the mammalian cells. The compounds were added at ~400 s after permeabilization. Each experiment was repeated at least three times in duplicates. Statistical analysis, unpaired student t-test, was performed using GraphPad Prism 8.0 (GraphPad Software, Inc., San Diego, CA).
Mitochondrial membrane potential measurements were performed with permeabilized T. gondii tachyzoites in suspension using safranin O, which loads into polarized membranes [see section Materials and Methods in the Supplemental Materials (Vercesi et al., [1998])]. T. gondii tachyzoites were permeabilized with digitonin to allow the mitochondrial substrate succinate to cross the membrane and energize the mitochondrion. The fluorescence of safranin O, which loads into energized mitochondria was used to measure the membrane potential. The energized state of the mitochondrion is observed by a decrease in fluorescence (Figures 3A,C,E). Trifluoromethoxy carbonylcyanide phenylhydrazone (FCCP) was used to depolarize the membrane, which is observed as an increase in fluorescence (Figures 3A,B). JAG21 depolarized the membrane potential even at concentrations as low as 2 nM (Figures 3C,D). JAG21 and Atovaquone had similar effects on the mitochondrial membrane potential (Figure 3D). […]

For data set [3], the system named is P. falciparum strains D6, TM91-C235, W2, C2B. Nature of the data set: Malaria SYBR Green I-Based Fluorescence (MSF) assay. It counts as cell-based. The conditions noted are these: Plasmodium falciparum. As for the experimental part:
Malaria potency testing in vitro was performed using 4 different P. falciparum strains, D6, TM91-C235, W2, and C2B. The D6 strain is a drug sensitive strain from Sierra Leone, the TM91-C235 strain is a multi-drug resistant strain from Thailand, the W2 strain is a chloroquine resistant strain from Thailand, and the C2B strain is a multi-drug resistant strain with resistance against atovaquone. These assays were performed as described below.
Compound activity against P. falciparum, was tested using the Malaria SYBR Green I–Based Fluorescence (MSF) Assay. The complete method for performing this microtiter assay is described in previous work published by Plouffe et al. ([2008]) and Johnson et al. ([2007]). In brief, this assay uses the binding of the fluorescent dye SYBR Green I to malaria DNA to measure parasite growth in the presence of 2-fold diluted experimental or control. The relative fluorescence of the intercalated SYBR Green I proportional to parasite growth, and inhibitory compounds will result in lower observed fluorescence compared to untreated parasites.

Data set [4] has as its system T. gondii RH-YFP tachyzoites. Nature of the data set: In vitro challenge assay, RH strain YFP tachyzoites in HFF. The format is cell-based. The conditions noted are these: Toxoplasma gondii; RH-YFP tachyzoites in HFF; Figure 1A; read-out: Tachy IC50. As for the experimental part: RH strain YFP Tachyzoites. Protocol was adapted from Fomovska et al. ([2012a],[b]) for HFF. HFF were cultured on a flat, clear-bottomed, black 96-well plate to 90–100% confluence. IMDM (1x, [+] glutamine, [+] 25 mM HEPES, [+] Phenol red, 10% FBS [Gibco, Denmark]) was removed and replaced with IMDM-C(1x, [+] glutamine, [+] 25 mM HEPES, [–] Phenol red, 10% FBS)[Gibco, Denmark]). RH-YFP, lysed from host cells by passing twice through a 27-gauge needle, were counted, then diluted to 32,000/mL in IMDM-C. HFF were infected with 3200 RH-YFP, then returned to 37°C, CO2 (5%) incubator for 1–2 h for infection. Various concentrations of the compounds in 20 μL IMDM-C were added to each well. There were triplicates for each condition. Controls were pyrimethamine/sulfadiazine (standard treatment), 0.1% DMSO only, HFF only, and untreated cultures of HFF infected with 2-fold dilutions of YFP expressing parasites (called “YFP gradient” to establish amount of color from known numbers of YFP expressing parasites). Cells were incubated at 37°C for 72 h. Plates were read using a fluorimeter (Synergy H4 Hybrid Reader, BioTek) to ascertain amount of relative fluorescence units (RFU) YFP, to measure parasite burden after treatment. Data were collected using Gen5 software with IC50 calculated by graphical analysis in Excel.
An initial screening assay of 10 μM, 1 μM, 100 nM, and 10 nM of the compounds was performed. Compounds were not considered effective or pursued for further analysis if there was no inhibition of tachyzoites at 1 μM. If compounds were effective at 1 μM, another experiment was performed to assess effect at 1 μM, 500, 250, 125, 62.5, and 31.25 nM.

Another data set concerns T. gondii RPS13Δ. Nature of the data set: RPS13Δ infection of interferon γ receptor knockout mice. The format is in vivo, Toxoplasma gondii. The conditions noted are these: mice to start 5 (Tafenoquine), 5 (JAG21). As to the method:
In pilot studies, herein, interferon γ receptor knockout mice that were not treated were observed following infection. At 7 and at 14 days following infection, spleen, and liver were removed and immune peroxidase stained. At 14 days a group of mice were treated with anhydrotetracycline and when a subset of these mice died, their spleen and liver were removed and immune peroxidase stained.
As in the pilot studies, this RPS13 Δ parasite also was used to infect interferon γ receptor knockout mice in a treatment study. In this separate study, groups of mice were infected with RPS13 Δ. They were treated with tafenoquine on day−1, or JAG21 for 14 days 2 h after infection, or the two together with tafenoquine on day−1 and JAG21 for the first 14 days, or with diluent only for 14 days, as described above. For the initial 14 days, no tetracycline was administered. After that time tetracycline was administered. Mice were observed each day. At the time they appeared to have substantial illness or at the termination of the experiment they were euthanized, tissues fixed in formalin and stained with hematoxylin and eosin or immunoperoxidase stained and parasite burden was assessed.

The mark [5] stands for this setting: C2B, multi-drug resistant strain with resistance against atovaquone, read-out: SYBR Green C2B IC50.
[6] abbreviates: D6, drug sensitive strain, read-out: SYBR Green D6 IC50.
Where [7] appears, read: TM91-C235, multi-drug resistant strain, read-out: SYBR Green C235 IC50.
The mark [8] stands for this setting: W2, chloroquine resistant strain, read-out: SYBR Green W2 IC50.

With `COc1ccc(Oc2ccc(-c3c(C)[nH]c4c(c3=O)CCCC4)cc2)cc1OC` [AS033], the Toxicity in data set [1] came out at 5 µM.
In the case of `Cc1[nH]c2c(c(=O)c1-c1ccc(Oc3ccc(C(=O)O)cc3)cc1)CCCC2` [JAG046], the “effect on mitochondrial membrane potential” value in data set [2] is reported as “almost no effect”. Moreover, the IC50 (usually the concentration needed to halve the response being measured) is greater than 20 µM in data set [3] (setting [5]); 6.72 µM in data set [3] (setting [6]); greater than 20 µM in data set [3] (setting [7]); greater than 20 µM in data set [3] (setting [8]); greater than 10 µM in data set [4].
As to `Cc1[nH]c2c(c(=O)c1-c1ccc(Oc3cccc(C(=O)O)c3)cc1)CCCC2` [JAG047], the “effect on mitochondrial membrane potential” value in data set [2] was “almost no effect”. The IC50 in data set [3] (setting [5]) is 7.78 µM; in data set [3] (setting [6]) it was 3.75 µM; in data set [3] (setting [7]) it was 12.6 µM; in data set [3] (setting [8]), 9.07 µM; in data set [4], greater than 10 µM.
For `COc1cc(C)c2c(Oc3cccc(C(F)(F)F)c3)c(OC)cc(NC(C)CCCN)c2n1` (stereo not drawn) [TAF, tafenoquine, reference compound], the “number of mice left at 42” value in the data set on T. gondii RPS13Δ (Experiment 1, 6 (Tafenoquine+JAG21)) was 1. Further, the “number of mice left at 37” value in the data set on T. gondii RPS13Δ (Experiment 2, 9 (Tafenoquine+JAG21)) is listed as 2.
